Results taken from patent US6673801B1, “Dihydroxyhexanoic acid derivatives” (Pfizer Inc., priority 1998, dated 2004).

Experiments:
[1] = pH 7
Experimental: (§1) Solubility of the compounds is determined at four fixed concentrations and is expressed as μg/mL. Solubility or insolubility is measured in phosphate buffer using a turbidometric plate reader by automated micro addition of a compound predissolved in DMSO. Solubilities at 50, 100, 200 and 250 or 100, 200, 400 and 500 micrograms/mL can be determined by predissolving 1 mg of compound in sufficient DMSO to reach an initial concentration of 20 or 40 μg/uL.
(§2) A spectramax 250 UV transparent 96 well microplate is filled with 200 uL of Stock pH 7 phosphate buffer solution. A series of 25 absorption readings in a 5 by 5 matrix at a wavelength of 492 nm are taken for each well in the microplate containing pH buffer alone. This scan is to be used as a “blank”, and the raw optical dispersion (OD) values are used as a baseline.
(§3) Compounds in DMSO solution are then added (column wise) down the microplate. Up to twenty four samples are assayed with each compound being placed in four contiguous wells column wise. Each column of the microplate contains four concentrations of compound in ascending concentration and ascending row order (A-D), or row (E-H). […] The plate is then shaken for 20 minutes to allow for mixing.
(§4) After compound addition, a second scan consisting of a series of 25 absorption readings in a 5 by 5 matrix are taken for each well in the microplate at the same wavelength as the first blank scan. The raw compound OD values for each reading in the 5 by 5 matrix are subtracted from the corresponding “blank” values in the 5 by 5 matrix to provide the raw solubility OD data.
(§5) Data obtained from the Tecan SLT Spectra Image Reader is then analyzed using a Visual Basic computer program (or can be calculated manually according to methods well known to those of ordinary skill in the art), so as to provide solubility data for each compound.

[2] = Kinetic solubility assay (turbidometric, phosphate buffer); details: pH 7, aqueous buffer, kinetic from dmso stock
Experimental: as §1, §2, §3, §4, §5

| SMILES | Solubility [1] | melting point [°C] | solubility at 20 min [2] [µg/mL] |
| --- | --- | --- | --- |
| CC(C)(F)CC[C@H](C[C@H](O)[C@H](Cc1ccccc1)NC(=O)c1cnc(Cl)c(Cl)c1)C(N)=O [Example 247] | less than 5 μg/mL |  |  |
| CC(C)(O)CC[C@H](C[C@H](O)[C@H](Cc1cccc2ccccc12)NC(=O)c1cnc2ccccc2n1)C(N)=O [Example 12, Quinoxaline-2-carboxylic acid (4(R)-carbamoyl-2(S),7-dihydroxy-7-methyl-1(S)-naphthalen-1-ylmethyl-octyl)-amide] |  | 155 to 158 | > 250 |
| CC(C)(O)CC[C@H](C[C@H](O)[C@H](Cc1ccc(F)c(F)c1)NC(=O)c1cnc2ccccc2n1)C(=O)NO [Example 10, Quinoxaline-2-carboxylic acid [1(S)-(3,4-difluoro-benzyl)-2(S),7-dihydroxy-4(R)-hydroxycarbamoyl-7-methyloctyl]-amide] |  | 150 to 153 | > 200 |
| CC(C)(O)CC[C@H](C[C@H](O)[C@H](Cc1cccs1)NC(=O)c1cnc2ccccc2n1)C(N)=O [Example 1, QUINOXALINE-2-CARBOXYLIC ACID (4(R)-CARBAMOYL-2(S),7-DIHYDROXY-7-METHYL-1(S)-THIOPHEN-2-YLMETHYL-OCTYL)-AMIDE] |  |  | > 250 |
| CC(C)(O)CC[C@H](C[C@H](O)[C@H](Cc1ccccc1F)NC(=O)c1cnc2ccccc2n1)C(=O)NO [Example 8, Quinoxaline-2-carboxylic acid [1(S)-(2-fluoro-benzyl)-2(S),7-dihydroxy-4(R)-hydroxycarbamoyl-7-methyl-octyl]-amide] |  | 130 to 131 | > 250 |
| CC(C)(O)CC[C@H](C[C@H](O)[C@H](Cc1ccccc1Cl)NC(=O)c1cnc2ccccc2n1)C(N)=O [Example 7, Quinoxaline-2-carboxylic acid [4(R)-carbamoyl-1(S)-(2-chloro-benzyl)-2(S),7-dihydroxy-7-methyl-octyl]-amide] |  |  | > 250 |
| CC(C)(O)CC[C@H](C[C@H](O)[C@H](Cc1ccccc1)NC(=O)c1cnc2c(F)c(F)c(F)cc2c1)C(N)=O [Example 5, 6,7,8-Trifluoro-quinoline-3-carboxylic acid (1(S)-benzyl-4(R)-carbamoyl 2(S),7-dihydroxy-7-methyl-octyl)-amide] |  | 185 to 188 | > 250 |
| CNC(=O)[C@H](CC(C)C)C[C@H](O)[C@H](Cc1ccc2ccccc2c1)NC(=O)c1cnc2ccccc2n1 [Example 127, quinoxaline-2-carboxylic acid (2(S)-hydroxy-6-methyl-4(R)-methylcarbamoyl-1(S)-naphthalen-2-ylmethyl-heptyl)-amide, reference compound] |  |  | < 5 |
| CC(C)(O)CC[C@H](C[C@H](O)[C@H](Cc1ccccc1F)NC(=O)c1cnc2ccccc2n1)C(N)=O [Example 9, Quinoxaline-2-carboxylic acid [4(R)-carbamoyl-1(S)-(2-fluoro-benzyl)-2(S),7-dihydroxy-7-methyl-octyl]-amide] |  | 147 to 148 | > 250 |
| CC(C)(O)CC[C@H](C[C@H](O)[C@H](Cc1ccccc1)NC(=O)c1cnc2ccccc2n1)C(=O)NO [Example 6, Quinoxaline-2-carboxylic acid (1(S)-benzyl-2(S),7-dihydroxy-4(R)-hydroxycarbamoyl-7-methyl-octyl)-amide] |  | 108 to 110 | > 250 |
| CC(C)(O)CC[C@H](C[C@H](O)[C@H](Cc1ccc(F)c(F)c1)NC(=O)c1cnc2ccccc2n1)C(N)=O [Example 11, Quinoxaline-2-carboxylic acid [4(R)-carbamoyl-1(S)-(3,4-difluoro-benzyl)-2(S),7-dihydroxy-7-methyl-octyl]-amide] |  | 110 to 120 | > 250 |
